Data on four compounds can be found in patent US8367328B2, “Method for synthesizing DNA” (Takara Bio Inc., priority 1998, dated 2013).

The test system of assay [1] is LA-Taq DNA Polymerase. Put plainly: PCR with LA-Taq DNA Polymerase in the presence of cationic complexes (GC-rich region, long chain). It is filed as biochemical. As to conditions: for DNA synthesis reaction when amplifying GC-rich region: human ApoE genomic region 441 bp, GC about 74%, 100 ng HT29 genomic DNA, complex 50, 100, 200 or 500 μM, no amplification without addition. Here is the method:
The effects on addition of the cationic complex were examined when PCR amplification was carried out with a GC-rich region as a target. As the cationic complex, there was used tris(ethylenediamine)cobalt (III) chloride, or tris(ethylenediamine)rhodium (III) trichloride•trihydrate. Template DNA was prepared from HT29 cells by conventional method. Amplified region and amplified chain lengths were human ApoE genomic region and 441 bp. The GC content of this amplified region was about 74%. As DNA polymerase, TaKaRa LA-Taq DNA Polymerase (manufactured by Takara Shuzo Co., Ltd., hereinafter referred to as “LA-Taq DNA Polymerase”) was used. The composition for a reaction mixture is shown below.
25 μl of 2×GC buffer I (manufactured by Takara Shuzo Co., Ltd.), 0.4 mM each of dATP, dCTP, dGTP and dTTP, 2.5 U of LA-Taq DNA Polymerase, 100 ng of HT29 cells genomic region, and 20 pmol each of primers ApoE-1 and ApoE-2 (a final volume being 50 μl). Each of the above cationic complex was added to the above reaction mixture so as to have a final concentration of 50, 100, 200, or 500 μM, respectively.
The reaction was carried out in Fast mode by using TaKaRa PCR Thermal Cycler Personal. As regarding the reaction conditions, the reaction in 30 cycles was carried out, wherein one cycle of reaction comprises a process consisting of 98° C., 5 seconds—64° C., 10 seconds—72° C., 40 seconds. On the other hand, as a control, the reaction for one without addition of the cationic complex was carried out in the same manner.
After the termination of the reaction, 5 μl of each of the resulting reaction mixtures was subjected to electrophoresis on 2% agarose gel containing ethidium bromide in an amount of 0.00005%. The gel after the electrophoresis was subjected to ultraviolet irradiation to visualize the band ascribed to the amplified product, whereby an amplified fragment was confirmed.
The effects on the amplified chain length when adding a cationic complex were examined. As the cationic complex, there was used hexaamminecobalt (III) trichloride. […]

Assay [2] relates to Pyrobest DNA Polymerase. Put plainly: PCR with Pyrobest DNA Polymerase in the presence of cationic complexes. As to conditions: for Amount of amplified DNA relative to No Addition (=1), Pyrobest: 100 pg E. coli JM109 genomic DNA, primers Eco1/Eco2, 30 cycles 98°C 5 s–68°C 2 min, FM-BIO 100. Format: biochemical, Pyrococcus sp.
Assay [3] addresses T1, TaKaRa Taq DNA Polymerase (Thermus aquaticus, UniProt P19821).
T1 construct: purchased Takara Shuzo Co., Ltd
The assay is described as follows: PCR with TaKaRa Taq DNA Polymerase in the presence of acidic substances. It is filed as biochemical. As to conditions: 1 kb fragment; 100 pg λDNA, primers λ1/λ3, 30 cycles 98°C 10 s–68°C 1 min, 50 μl; amount added 1 μg. Here is the method:
Using the sulfated-fucose-containing polysaccharide-F obtained in Example 6 described above or sodium alginate, the effects of these acidic substances imparted on TaKaRa Taq DNA Polymerase (manufactured by Takara Shuzo Co., Ltd.) were examined. In this example, PCR was carried out in normal mode by using TaKaRa PCR Thermal Cycler Personal.
A reaction mixture comprising λDNA as a template, primers λ1 and λ3 as a primer pair, and TaKaRa Taq DNA Polymerase as DNA polymerase was prepared, and PCR was carried out. The composition of the reaction mixture is as follows.
TaKaRa Taq DNA Polymerase buffer, 0.2 mM each of dATP, dCTP, dGTP and dTTP, 1.25 U of TaKaRa Taq DNA Polymerase, 100 pg of λDNA, and 10 pmol each of primers λ1 and λ3 (a final volume being 50 μl). Further, 0.1 ng or 0.25 ng each of the sulfated-fucose-containing polysaccharide-F or 1 μg of sodium alginate was respectively added to the above reaction mixture.
The reaction was carried out in 30 cycles, wherein one cycle of reaction comprises a process consisting of 98° C., 10 seconds—68° C., 1 minute. After the termination of the reaction, 5 μl of the resulting reaction mixture was subjected to electrophoresis on 1% agarose gel containing ethidium bromide in an amount of 0.00005%, whereby an amplified fragment was confirmed.

T1 sequence (P19821 whole entry): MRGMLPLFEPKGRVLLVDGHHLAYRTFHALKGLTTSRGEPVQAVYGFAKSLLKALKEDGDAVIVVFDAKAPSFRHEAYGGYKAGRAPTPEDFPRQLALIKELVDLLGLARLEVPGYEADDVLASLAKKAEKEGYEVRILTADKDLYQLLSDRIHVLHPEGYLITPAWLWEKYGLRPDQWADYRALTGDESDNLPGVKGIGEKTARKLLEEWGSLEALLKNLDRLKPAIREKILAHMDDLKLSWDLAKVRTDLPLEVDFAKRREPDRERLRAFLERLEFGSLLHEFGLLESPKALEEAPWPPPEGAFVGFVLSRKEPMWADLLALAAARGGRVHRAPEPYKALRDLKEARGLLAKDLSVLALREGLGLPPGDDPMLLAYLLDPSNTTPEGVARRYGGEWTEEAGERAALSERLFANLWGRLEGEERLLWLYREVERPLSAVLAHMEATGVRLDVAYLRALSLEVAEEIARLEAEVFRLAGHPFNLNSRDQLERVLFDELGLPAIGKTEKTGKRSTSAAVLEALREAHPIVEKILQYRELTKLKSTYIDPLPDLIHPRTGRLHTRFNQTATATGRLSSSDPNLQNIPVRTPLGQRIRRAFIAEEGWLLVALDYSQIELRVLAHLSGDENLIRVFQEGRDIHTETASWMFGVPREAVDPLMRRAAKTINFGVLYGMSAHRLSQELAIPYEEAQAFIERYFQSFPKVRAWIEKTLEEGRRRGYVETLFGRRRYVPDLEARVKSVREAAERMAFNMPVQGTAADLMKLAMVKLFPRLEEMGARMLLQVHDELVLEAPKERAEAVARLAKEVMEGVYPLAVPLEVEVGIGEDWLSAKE

With `N.N.N.N.N.N.[Cl-].[Cl-].[Cl-].[Co+3]` [[Co(NH3)6]Cl3, hexaamminecobalt (III) chloride], the “Amplification of desired long DNA fragment” value is on record as “excellently amplified” in assay [1] (LA-Taq, 1 ng λDNA, primers λL36/λR485 (48.5 kb), 30 cycles 98°C 10 s–68°C 15 min, 50 μM, only slight without addition) and “excellently amplified” in assay [2] (Pyrobest, 10 ng E. coli genome, primers Eco1/Eco5 (10 kb), 30 cycles 98°C 5 s–68°C 10 min, 50 μM or 100 μM, only slight without addition). In addition, the “Amount of amplified DNA relative to No Addition (=1), Pyrobest” value in assay [2] (complex 50 μM), in assay [2] (complex 100 μM) and in assay [2] (complex 200 μM) was 2.1 each time. Further, the “Primer amount with which a fragment can still be amplified” value in assay [2] (Pyrobest, 100 μM complex, primers 2–20 pmol tested, no amplification without addition) amounted to 3.3 pmol. Moreover, the “Amount of template DNA at which amplification was still possible” value in assay [2] (Pyrobest, 100 μM complex, templates 1 pg–1 ng tested, no amplification at 1 pg without addition) worked out at 1 pg. Besides, in assay [2] (Pyrobest, 0.5 mM magnesium chloride (usual 1 mM), 100 μM complex, no amplification without addition), the “Amplification in low-magnesium reaction mixture” value is “allowed to amplify”.
As to sodium alginate, the “Amplification Results” value in assay [3] is “+ (Amplification being observed)”.
Take `NCCN.NCCN.NCCN.O.O.O.[Cl][Rh]([Cl])[Cl]` [[Rh(H2NCH2CH2NH2)3]Cl3, tris(ethylenediamine)rhodium (III) trichloride•trihydrate]: the “DNA synthesis reaction when amplifying GC-rich region” value in assay [1] is “enhanced as the concentration of added complex was increased as 100 μM, 200 μM and 500 μM”. Also, the “Amount of amplified DNA relative to No Addition (=1), Pyrobest” value is on record as 1.4 in assay [2] (complex 50 μM), 1.7 in assay [2] (complex 100 μM) and 2.0 in assay [2] (complex 200 μM).
On to `NCCN.NCCN.NCCN.[Cl-].[Cl-].[Cl-].[Co+3]` [[Co(H2NCH2CH2NH2)3]Cl3, tris(ethylenediamine)cobalt (III) chloride], for which, in assay [1], the “DNA synthesis reaction when amplifying GC-rich region” value is recorded as “enhanced as the concentration of added complex was increased”. The results for the “Amount of amplified DNA relative to No Addition (=1), Pyrobest” value in assay [2] (complex 50 μM) and in assay [2] (complex 100 μM) were 2.1 and 2.2, respectively.
